Measurements taken from PubChem BioAssay AID226 (DTP/NCI, 2004).
Several values for one entry are separate records, joined by “and”; a condition that tells them apart may be missing. Identical values can stand only once. Inconclusive results and toxic doses are left out.

Test system: B6C3F1 mice, intracerebral ependymoblastoma, median survival T/C
Experiment: NCI In Vivo Anticancer Drug Screen. Data for tumor model Ependymoblastoma (intracerebral) in B6C3F1 mice
Conditions: endpoint: median survival time, higher = longer survival
Description: The antitumor activity of compounds was measured in mice bearing transplantable tumors. Survival or tumor size were measured and the results are expressed as the measurement made in the treated group (T) divided by the measurement made in the vehicle treated control group (C). The tumor model used in this assay is Ependymoblastoma (intracerebral) in B6C3F1 mice

[1] = dose: 64.0 mg/kg/injection, schedule: Q01DX005 (ip), vehicle: saline with Tween-80

With COC(=O)[C@@]12OC[C@]34[C@H]([C@@H](O)[C@@H]1O)[C@@]1(C)CC(=O)C(O)=C(C)[C@@H]1C[C@H]3OC(=O)[C@H](OC(=O)/C=C(\C)C(C)C)[C@@H]24 the T/C (dose: 0.03 mg/kg/injection, schedule: Q01DX005 (ip), vehicle: saline + alcohol) was 100 % of control and 101 % of control, the T/C (dose: 0.06 mg/kg/injection, schedule: Q01DX005 (ip), vehicle: saline + alcohol) was 92 % of control and 97 % of control and the T/C (dose: 0.12 mg/kg/injection, schedule: Q01DX005 (ip), vehicle: saline + alcohol) was 98 % of control and 101 % of control. The T/C (dose: 0.12 mg/kg/injection, schedule: Q01DX005 (oral), vehicle: saline) was 100 % of control, the T/C (dose: 0.12 mg/kg/injection, schedule: Q12HX006 (ip), vehicle: saline) was 109 % of control and the T/C (dose: 0.25 mg/kg/injection, schedule: Q01DX005 (ip), vehicle: saline + alcohol) was 95 % of control and 96 % of control. For the same molecule, the T/C (dose: 0.25 mg/kg/injection, schedule: Q12HX002 (ip), vehicle: saline) was 107 % of control, the T/C (dose: 0.25 mg/kg/injection, schedule: Q12HX006 (ip), vehicle: saline) was 116 % of control and the T/C (dose: 0.5 mg/kg/injection, schedule: Q01DX001 (ip), vehicle: saline) was 111 % of control and 115 % of control and 116 % of control. The T/C (dose: 0.5 mg/kg/injection, schedule: Q01DX005 (ip), vehicle: saline + alcohol) was 92 % of control and 95 % of control, the T/C (dose: 0.5 mg/kg/injection, schedule: Q01DX005 (oral), vehicle: saline) was 101 % of control and the T/C (dose: 0.5 mg/kg/injection, schedule: Q12HX002 (ip), vehicle: saline) was 107 % of control. For the same molecule, the T/C (dose: 0.5 mg/kg/injection, schedule: Q12HX006 (ip), vehicle: saline) was 116 % of control, the T/C (dose: 1.0 mg/kg/injection, schedule: Q01DX001 (ip), vehicle: saline) was 101 % of control and 110 % of control and 111 % of control and the T/C (dose: 1.0 mg/kg/injection, schedule: Q01DX005 (ip), vehicle: saline + alcohol) was 95 % of control and 100 % of control. For the same molecule, the T/C (dose: 1.0 mg/kg/injection, schedule: Q01DX005 (oral), vehicle: saline) was 100 % of control, the T/C (dose: 1.0 mg/kg/injection, schedule: Q12HX002 (ip), vehicle: saline) was 102 % of control and the T/C (dose: 1.0 mg/kg/injection, schedule: Q12HX006 (ip), vehicle: saline) was 119 % of control. For the same molecule, the T/C (dose: 2.0 mg/kg/injection, schedule: Q01DX001 (ip), vehicle: saline) was 119 % of control and 123 % of control, the T/C (dose: 2.0 mg/kg/injection, schedule: Q01DX001 (oral), vehicle: saline) was 101 % of control and 109 % of control and 115 % of control and the T/C (dose: 2.0 mg/kg/injection, schedule: Q01DX005 (ip), vehicle: saline + alcohol) was 98 % of control. The T/C (dose: 2.0 mg/kg/injection, schedule: Q01DX005 (oral), vehicle: saline) was 105 % of control, the T/C (dose: 2.0 mg/kg/injection, schedule: Q12HX002 (ip), vehicle: saline) was 110 % of control and the T/C (dose: 4.0 mg/kg/injection, schedule: Q01DX001 (ip), vehicle: saline) was 115 % of control. For the same molecule, the T/C (dose: 4.0 mg/kg/injection, schedule: Q01DX001 (oral), vehicle: saline) was 95 % of control and 101 % of control and 123 % of control, the T/C (dose: 4.0 mg/kg/injection, schedule: Q12HX002 (ip), vehicle: saline) was 101 % of control and the T/C (dose: 8.0 mg/kg/injection, schedule: Q01DX001 (oral), vehicle: saline) was 95 % of control and 96 % of control and 108 % of control. For the same molecule, the T/C (dose: 16.0 mg/kg/injection, schedule: Q01DX001 (oral), vehicle: saline) was 105 % of control.
COc1cc2c(c3c1c(=O)c1ccccc1n3C)C=CC(C)(C)O2 was tested, and the T/C (dose: 64.0 mg/kg/injection, schedule: Q01DX005 (ip), vehicle: Klucel (hydroxypropylcellulose) (HPC)) was 114 % of control, the T/C (dose: 128.0 mg/kg/injection, schedule: Q01DX005 (ip), vehicle: suspension in saline) was 108 % of control and the T/C (dose: 256.0 mg/kg/injection, schedule: Q01DX005 (ip), vehicle: suspension in saline) was 120 % of control.
CC(C)(C)N1CC1CNC(=O)C(=O)NCC1CN1C(C)(C)C (stereo not given) was tested, and the T/C (dose: 1.5 mg/kg/injection, schedule: Q01DX005 (ip), vehicle: saline with Tween-80) was 96 % of control, the T/C (dose: 3.0 mg/kg/injection, schedule: Q01DX005 (ip), vehicle: saline with Tween-80) was 102 % of control and 112 % of control and the T/C (dose: 3.12 mg/kg/injection, schedule: Q01DX005 (ip), vehicle: saline with Tween-80) was 112 % of control. The T/C (dose: 6.0 mg/kg/injection, schedule: Q01DX005 (ip), vehicle: saline with Tween-80) was 102 % of control and 114 % of control, the T/C (dose: 6.25 mg/kg/injection, schedule: Q01DX005 (ip), vehicle: saline with Tween-80) was 116 % of control and the T/C (dose: 12.0 mg/kg/injection, schedule: Q01DX005 (ip), vehicle: saline with Tween-80) was 115 % of control and 119 % of control.
For Nc1ccc(S(N)(=O)=O)cc1, the T/C (dose: 25.0 mg/kg/injection, schedule: Q01DX005 (ip), vehicle: saline with Tween-80) was 98 % of control, the T/C (dose: 50.0 mg/kg/injection, schedule: Q01DX005 (ip), vehicle: saline with Tween-80) was 96 % of control and 103 % of control and the T/C (dose: 100.0 mg/kg/injection, schedule: Q01DX005 (ip), vehicle: saline with Tween-80) was 101 % of control and 103 % of control. For the same molecule, the T/C (dose: 200.0 mg/kg/injection, schedule: Q01DX005 (ip), vehicle: saline with Tween-80) was 92 % of control and 102 % of control, the T/C (dose: 400.0 mg/kg/injection, schedule: Q01DX005 (ip), vehicle: saline with Tween-80) was 101 % of control and 107 % of control and the T/C (dose: 800.0 mg/kg/injection, schedule: Q01DX005 (ip), vehicle: saline with Tween-80) was 95 % of control.
For NC(C/[N+]([O-])=N/O)C(=O)O (stereo not given), the T/C (dose: 7.0 mg/kg/injection, schedule: Q01DX005 (ip), vehicle: saline with Tween-80) was 111 % of control, the T/C (dose: 12.5 mg/kg/injection, schedule: Q01DX009 (ip), vehicle: Klucel (hydroxypropylcellulose) (HPC)) was 110 % of control and the T/C (dose: 14.0 mg/kg/injection, schedule: Q01DX005 (ip), vehicle: saline with Tween-80) was 109 % of control. The T/C (dose: 16.0 mg/kg/injection, schedule: Q01DX005 (ip), vehicle: saline with Tween-80) was 114 % of control, the T/C (dose: 25.0 mg/kg/injection, schedule: Q01DX009 (ip), vehicle: Klucel (hydroxypropylcellulose) (HPC)) was 119 % of control and the T/C (dose: 28.0 mg/kg/injection, schedule: Q01DX005 (ip), vehicle: saline with Tween-80) was 118 % of control. For the same molecule, the T/C (dose: 32.0 mg/kg/injection, schedule: Q01DX005 (ip), vehicle: saline with Tween-80) was 118 % of control, the T/C (dose: 50.0 mg/kg/injection, schedule: Q01DX009 (ip), vehicle: Klucel (hydroxypropylcellulose) (HPC)) was 112 % of control and the T/C (dose: 56.0 mg/kg/injection, schedule: Q01DX005 (ip), vehicle: saline with Tween-80) was 119 % of control. For the same molecule, the T/C [1] was 117 % of control, the T/C (dose: 112.0 mg/kg/injection, schedule: Q01DX005 (ip), vehicle: saline with Tween-80) was 122 % of control and the T/C (dose: 256.0 mg/kg/injection, schedule: Q01DX005 (ip), vehicle: saline with Tween-80) was 109 % of control.
With ClC1C(Cl)C(Cl)C(Cl)C(Cl)C1Cl (stereo not given) the T/C (dose: 12.5 mg/kg/injection, schedule: Q01DX005 (ip), vehicle: Klucel (hydroxypropylcellulose) (HPC)) was 100 % of control, the T/C (dose: 25.0 mg/kg/injection, schedule: Q01DX005 (ip), vehicle: Klucel (hydroxypropylcellulose) (HPC)) was 107 % of control and 108 % of control and the T/C (dose: 50.0 mg/kg/injection, schedule: Q01DX005 (ip), vehicle: Klucel (hydroxypropylcellulose) (HPC)) was 95 % of control and 102 % of control. The T/C (dose: 100.0 mg/kg/injection, schedule: Q01DX005 (ip), vehicle: Klucel (hydroxypropylcellulose) (HPC)) was 117 % of control and 118 % of control, the T/C (dose: 200.0 mg/kg/injection, schedule: Q01DX005 (ip), vehicle: Klucel (hydroxypropylcellulose) (HPC)) was 98 % of control and 107 % of control and the T/C (dose: 400.0 mg/kg/injection, schedule: Q01DX005 (ip), vehicle: Klucel (hydroxypropylcellulose) (HPC)) was 107 % of control.
CCCCN(C)N=Nc1c(C(N)=O)n[nH]c1C was tested, and the T/C [1] was 166 % of control.
For COc1ccc2c(c1OC(C)=O)-c1cc(OC(C)=O)cc3c1C(C2)N(C(=O)CN(CCCl)CCCl)CC3 (stereo not given), the T/C (dose: 12.5 mg/kg/injection, schedule: Q01DX005 (ip), vehicle: DMSO) was 108 % of control.
In the case of C1CN1c1nc(N2CC2)nc(N2CC2)n1, the T/C (dose: 0.06 mg/kg/injection, schedule: Q01DX005 (ip), vehicle: saline) is reported as 110 % of control, the T/C (dose: 0.13 mg/kg/injection, schedule: Q01DX005 (ip), vehicle: saline) is reported as 106 % of control and 119 % of control and the T/C (dose: 0.25 mg/kg/injection, schedule: Q01DX005 (ip), vehicle: saline) is reported as 115 % of control and 124 % of control. For the same molecule, the T/C (dose: 1.0 mg/kg/injection, schedule: Q01DX005 (ip), vehicle: saline) was 189 % of control and 238 % of control.
With CC[C@H]1CN2CCc3cc(OC)c(OC)cc3[C@@H]2C[C@@H]1C[C@H]1NCCc2cc(OC)c(OC)cc21 the T/C (dose: 2.0 mg/kg/injection, schedule: Q01DX005 (ip), vehicle: Klucel (hydroxypropylcellulose) (HPC)) was 100 % of control and 104 % of control, the T/C (dose: 4.0 mg/kg/injection, schedule: Q01DX005 (ip), vehicle: Klucel (hydroxypropylcellulose) (HPC)) was 99 % of control and 105 % of control and the T/C (dose: 8.0 mg/kg/injection, schedule: Q01DX005 (ip), vehicle: Klucel (hydroxypropylcellulose) (HPC)) was 105 % of control and 117 % of control.
